Experimental data from patent US10413581B2, “Combination, composition, and method of administering the combination or composition to animals” (Phibro Animal Health Corporation, priority 2014, dated 2019).

What was measured:
[1] = system: E. maxima; test: Example 5: birds infected with E. maxima field isolate; performance, lesion score, OPG; type: in vivo
Source text: Similar protocols were used to determine the effects of lower amounts of NFP (e.g., 100 ppm, 125 ppm, and 150 ppm) on birds infected with E. maxima, a common form of Eimeria found in commercial broilers. Infected birds were infected with 37,500 oocysts of field isolate of E. maxima. The infected birds were subjected to the treatments described below in entries 2-6 of Table 3.

[2] = system: E. maxima; test: Example 8: lesion score and OPG, E. maxima; type: in vivo, Cobb 500 male chicks; conditions: Composition 250 ppm, Salinomycin 66 ppm, alone or combined
Source text: (§1) On Days 18, 28, and 35, three birds per pen were sacrificed and coccidial lesion scored for degree of E. acervulina, E. maxima and E. tenella infection (Examples 6 and 7). The system of Johnson and Reid (1970) wherein 0 is normal and 1, 2, 3, or 4 indicate increasing severity of infection were used for lesion scoring. In Example 8, three birds per pen were sacrificed on days […] and coccidial lesion scored for degree of E. acervulina, E. maxima and E. tenella infection. The system of Johnson and Reid (1970) wherein 0 is normal and 1, 2, 3, or 4 indicate increasing severity of infection were used for lesion scoring.
(§2) On Days 18 and 28 fresh fecal samples were collected from each pen (Examples 6 and 7). On Days 18 and 28, fresh fecal samples were collected from each pen (Example 8). These representative samples were tested to determine the degree of oocysts shedding/cycling. Oocysts per gram were determined for each sample.
(§3) In this example, the ability of exemplary compositions to improve bird performance under challenge conditions was determined. In some embodiments, an exemplary composition was administered alone and in other embodiments, it was administered in combination with Salinomycin. In some embodiments, the birds were not fed any additives (that is, neither the composition nor Salinomycin) and in other embodiments the birds were solely fed Salinomycin. The birds used in this example were exposed to ionophore tolerant coccidia in the litter of all pens, beginning from day of age. […] The results from this example further illustrate that the disclosed compositions and combinations are effective to better control coccidia that are partially resistant to ionophores.

[3] = system: ionophore tolerant coccidia; test: Example 8 floor pen study, ionophore tolerant coccidia in the litter: performance, mortality, total lesion score, total OPG; type: in vivo, Cobb 500 male chicks
Source text: In the embodiments described below in Examples 6-8, the following conditions and methods were utilized. The test house was divided into pens of equal size, arranged along a central aisle. Subtracting out for equipment, the initial bird density was ˜0.84 square ft/bird. Each pen had 5 feet high side walls with bottom 1½ feet being of solid wood to prevent bird migration. All flooring of each pen had approximately 4 inches of built-up litter.
The temperature of the building was monitored. Environmental conditions during the trial (temperature) were appropriate (optimum) to the age of the animals Illumination was provided by fluorescent bulbs placed above the pens. The lighting scheme was 24 hours of light per day.
The diets were provided ad libitum in one tube-type feeder per pen. From day 1 until day 7, feed will also be supplied on a tray placed directly on the litter of each pen.
Standard floor pen management practices were used throughout the experiment. Animals and housing facilities were inspected twice daily, observing and recording the general health status, constant feed and water supply as well as temperature, removing all dead birds, and recognizing unexpected events.
All feeds were fed as crumbles/pellets. Quantities of all basal feed and test articles used to prepare treatment batches were documented. Each batch of feed was mixed and bagged separately. Each bag was identified with the study number, date of mix, type of feed, and the correct treatment number. Complete records of feed mixing, and test article inventories were maintained. A sample from the beginning, middle, and end of each treatment feed were mixed to form a composite sample. This sample of each treatment was retained until study end. All feed was weighed by pen. Starter feed was fed from Day 0 to 18. On Day 18, non-consumed starter was weighed and discarded. Grower feed was issued and fed until Day 28. On Day 28, non-consumed grower was weighed and discarded. Finisher feed was issued and fed until Day 42. On Day 42, non-consumed finisher was weighed and discarded.
Day of hatch male chicks were obtained from Cobb-Vantress hatchery, Cleveland, Ga. The strain was Cobb 500. Breeder flock was recorded. 1760 chicks were allocated to the study. At the hatchery, the birds received routine vaccinations. The birds were sexed at the hatchery. In Example 7, all chicks were spray vaccinated with conventional doses of Coccivac-B. Only healthy appearing chicks were used in the study. In examples 6 and 7, fifty-five males were allocated to each treatment pen by blocks. In example 8, fifty-two males were allocated to each treatment pen by blocks. No birds were replaced during the course of the study. Number and disposition of all birds not used for allocation were documented. Bird weights (kg) by pen were recorded at study initiation, Day 18, 28, and termination (Day 42).
as §1
On Days 18 and 28 fresh fecal samples were collected from each pen (Examples 6 and 7). […] These representative samples were tested to determine the degree of oocysts shedding/cycling. Oocysts per gram were determined for each sample.
In this example, the ability of exemplary compositions to improve bird performance under challenge conditions was determined. […]

[4] = system: E. acervulina; test: Example 5: birds infected with E. acervulina field isolate; performance, lesion score, OPG; type: in vivo
Procedure: In this particular embodiment, the effects of the composition and Salinomycin, independently, were evaluated. Lower amounts of the composition were tested, including the amount that is typically used by those in the art (i.e., 125 ppm). Salinomycin treatments used 44 ppm or 66 ppm Salinomycin. Non-infected birds that received no medication were used as a control (entry 1 of Table 2, below). Also, some birds were administered 66 ppm of Salinomycin, but where not infected (entry 7 of Table 2, below). The remaining birds were infected with 200,000 oocysts of field isolate of E. acervulina, which is a species of Eimeria that causes coccidiosis in poultry, particularly […] poultry, and subjected to the treatments described below in entries 2-6 of Table 2.

[5] = system: E. acervulina; test: Example 8: lesion score and OPG, E. acervulina; type: in vivo, Cobb 500 male chicks; conditions: Composition 250 ppm, Salinomycin 66 ppm, alone or combined
Source text: as §1, §2, §3

[6] = 44 ppm, birds infected with 37,500 oocysts of E. maxima
[7] = 66 ppm, entry 7 of Table 3 (entries 2-6 infected)
[8] = Day 18, Composition 250 ppm, Salinomycin 66 ppm, alone or combined
[9] = Day 28, Composition 250 ppm, Salinomycin 66 ppm, alone or combined
[10] = Day 42, Composition 250 ppm, Salinomycin 66 ppm, alone or combined
[11] = 44 ppm, birds infected with 200,000 oocysts of E. acervulina
[12] = 66 ppm, entry 7 of Table 2 (not infected)

## CC[C@@H](C(=O)[C@@H](C)[C@@H](O)[C@H](C)[C@@H]1O[C@@H]([C@@H](CC)C(=O)O)CC[C@@H]1C)[C@H]1O[C@]2(C=C[C@@H](O)[C@]3(CC[C@@](C)([C@H]4CC[C@](O)(CC)[C@H](C)O4)O3)O2)[C@H](C)C[C@@H]1C [Salinomycin]
[1]; [6]
  Adj. Fd. Conv.: 2.021 b
  Avg. Wt. Gain: 0.225 b
  Feed Consum.: 2.718 ab
  Lesion Score: 1.3 cd
  OPG: 4435 oocysts per gram of fecal material
[1]; [7]
  Adj. Fd. Conv.: 1.960 b
  Avg. Wt. Gain: 0.230 b
  Feed Consum.: 2.647 bc
  Lesion Score: 1.2 days
  OPG: 167 oocysts per gram of fecal material
[2]; Day 18
  Lesion Scores E.M.: 0.7a
[2]; Day 21
  OPG E.M.: 1910bc oocysts per gram
[2]; Day 28
  Lesion Scores E.M.: 0.5b
  OPG E.M.: 955b oocysts per gram
[3]; [8]
  Adj. FCR: 1.420ab
  Feed Intake: 24.76a
  Lesion Scores Total: 0.8b
  Wt. Gain: 0.294a kg
[3]; Day 21, Composition 250 ppm, Salinomycin 66 ppm, alone or combined
  OPG Total: 10352b oocysts per gram
[3]; [9]
  Adj. FCR: 1.619b
  Feed Intake: 74.09a
  Lesion Scores Total: 0.6b
  OPG Total: 7839b oocysts per gram
  Wt. Gain: 0.875a kg
[3]; [10]
  Adj. FCR: 1.773bc
  Feed Intake: 175.68a
  Mortality: 6.5a
  Wt. Gain: 2.114a kg
[3]; day 18, Salinomycin alone
  performance: did not improve performance
[4]; [11]
  Adj. Fd. Conv.: 1.946 b
  Avg. Wt. Gain: 0.241 ab
  Feed Consum.: 2.804 a
  Lesion Score: 1.3 c
  OPG: 2734 oocysts per gram of fecal material
[4]; [12]
  Adj. Fd. Conv.: 1.948 b
  Avg. Wt. Gain: 0.231 b
  Feed Consum.: 2.692 ab
  Lesion Score: 1.4 c
  OPG: 217 oocysts per gram of fecal material
[5]; Day 18
  Lesion Scores E.A.: 1.3a
[5]; Day 21
  OPG E.A.: 2915bc oocysts per gram
[5]; Day 28
  Lesion Scores E.A.: 1.2ab
  OPG E.A.: 3819b oocysts per gram
